According to patent US20240116985A1, “STAPLED PEPTIDES AND METHODS THEREOF” (priority 2020, published 2024):
Where two headings read alike, the source gives them in different places.

Tests used:
[1] = molecular target: T1, full-length beta-Catenin (Uniprot ID P35222) (Homo sapiens, UniProt P35222); assay: Fluorescence polarization IC50 (beta-catenin / 5FAM-TCF4 10-53 competition); type: binding
T1 construct: 10 nM full-length beta-Catenin (Uniprot ID P35222)
T1 sequence (P35222 1-781): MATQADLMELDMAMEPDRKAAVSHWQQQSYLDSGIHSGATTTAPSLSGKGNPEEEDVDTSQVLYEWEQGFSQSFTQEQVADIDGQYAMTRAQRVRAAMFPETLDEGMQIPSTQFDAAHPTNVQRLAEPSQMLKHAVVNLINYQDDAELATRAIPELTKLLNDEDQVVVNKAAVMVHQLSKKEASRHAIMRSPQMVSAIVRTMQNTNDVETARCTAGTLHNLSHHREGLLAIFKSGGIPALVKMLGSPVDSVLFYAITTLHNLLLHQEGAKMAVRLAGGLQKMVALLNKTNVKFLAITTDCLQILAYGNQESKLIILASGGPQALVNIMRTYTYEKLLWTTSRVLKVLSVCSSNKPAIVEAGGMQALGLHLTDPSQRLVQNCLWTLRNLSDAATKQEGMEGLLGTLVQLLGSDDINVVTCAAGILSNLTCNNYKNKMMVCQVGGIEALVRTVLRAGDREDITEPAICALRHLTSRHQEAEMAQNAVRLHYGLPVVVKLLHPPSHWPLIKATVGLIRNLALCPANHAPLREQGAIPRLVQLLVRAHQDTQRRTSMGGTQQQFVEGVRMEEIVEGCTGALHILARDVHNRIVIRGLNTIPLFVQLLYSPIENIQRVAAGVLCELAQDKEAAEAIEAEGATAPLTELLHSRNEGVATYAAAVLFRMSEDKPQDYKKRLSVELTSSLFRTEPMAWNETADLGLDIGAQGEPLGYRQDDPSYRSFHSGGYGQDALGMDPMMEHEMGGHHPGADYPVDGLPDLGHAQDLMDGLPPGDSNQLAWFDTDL

[2] = molecular target: T2, beta-catenin/TCF4 engagement (Homo sapiens, UniProt P35222); assay: Nano-BRET target engagement assay (B-cat-Halo & TCF4-Luc in HEK293 cells); type: cell-based
T2 construct: expressed in transfected cells; host or cells: HEK293
T2 sequence (P35222 1-781): T1 sequence (P35222 1-781)

[3] = fluorescence polarization, read-out: beta-Catenin FP IC50
[4] = absolute IC50, read-out: NanoBRET Abs IC50

| IC50 [1, 3] [nM] | IC50 [2, 4] [µM] | IC50 ([2]; read-out: NanoBRET Abs IC50) [µM] | SMILES | IC50 ([1]; beta-Catenin FP IC50, fluorescence polarization) [nM] | IC50 ([2]; NanoBRET Abs IC50, absolute IC50) [µM] |
| --- | --- | --- | --- | --- | --- |
| 33 | 15.3 |  | CC(=O)N1CCC[C@]12CC=CCCCC1(CCCC=CCCCCCC[C@@](C)(C(=O)N[C@@H](Cc3ccccc3C(F)(F)F)C(=O)N[C@@H](Cc3csc4ccccc34)C(=O)N[C@@H](CCC(N)=O)C(N)=O)NC(=O)[C@H](CC(N)=O)NC(=O)[C@H](Cc3ccccc3)NC(=O)[C@H](C)NC(=O)[C@H](C)NC(=O)[C@H](CC(=O)O)NC(=O)[C@H](CC(=O)O)NC1=O)NC(=O)[C@H](CC(C)(C)C)NC(=O)[C@H](CC(=O)O)NC2=O (stereo partly drawn) [I-1396, Ac-PL3-Asp-Npg-B5-Asp-Asp-Ala-Ala-Phe-Asn-S8-2F3MeF-BztA-Gln-NH2] |  |  |
| 7 | 5.2 |  | CCNC(=O)CC[C@H](NC(=O)[C@H](Cc1csc2ccccc12)NC(=O)[C@H](Cc1ccccc1C(F)(F)F)NC(=O)[C@]12CCN(C1)C(=O)OCCCC=CCCCC1(CCCC=CC[C@]3(CCCN3C(C)=O)C(=O)N[C@@H](CC(=O)O)C(=O)N[C@@H](CC(C)(C)C)C(=O)N1)C(=O)N[C@@H](CC(=O)O)C(=O)N[C@@H](Cc1cccc(C(=O)O)c1)C(=O)N[C@@H](CCC(=O)NCC)C(=O)N[C@@H](C)C(=O)N[C@@H](Cc1ccccc1)C(=O)N[C@@H](CC(C)C)C(=O)N2)C(N)=O (stereo partly drawn) [I-2299, Ac-PL3-Asp-Npg-B5-Asp-3COOHF-[NHEt]GlnR-Ala-Phe-Leu-PyrS2-2F3MeF-BztA-NHEt]GlnR-NH2] |  |  |
| 17 | > 20 |  | CC(=O)N1CCC[C@]12CC=CCCCC1(CCCC=CCCCOC(=O)N3CC[C@@](C(=O)N[C@@H](Cc4ccsc4)C(=O)N[C@@H](Cc4csc5ccccc45)C(=O)N[C@@H](CCC(N)=O)C(N)=O)(C3)NC(=O)[C@H](CC(N)=O)NC(=O)[C@H](Cc3ccccc3)NC(=O)[C@H](C)NC(=O)[C@H](C)NC(=O)[C@H](CN(C)CC(=O)O)NC(=O)[C@H](CC(=O)O)NC1=O)NC(=O)[C@H](CC(C)(C)C)NC(=O)[C@H](CC(=O)O)NC2=O (stereo partly drawn) [I-1636, Ac-PL3-Asp-Npg-B5-Asp-[Me]GA-Ala-Ala-Phe-Asn-PyrS2-3Thi-BztA-Gln-NH2] |  |  |
| 26 | 6.9 |  | CC(=O)N1CCC[C@]12CC=CCCCC1(CCCC=CCCCOC(=O)N3CC[C@@](C(=O)N[C@@H](Cc4ccccc4Cl)C(=O)N[C@@H](Cc4csc5ccccc45)C(=O)N[C@@H](CCC(N)=O)C(N)=O)(C3)NC(=O)[C@H](CC(C)C)NC(=O)[C@H](Cc3ccccc3)NC(=O)[C@H](C)NC(=O)[C@H](C)NC(=O)[C@H](CN(CC(=O)O)CC(F)(F)F)NC(=O)[C@H](CC(=O)O)NC1=O)NC(=O)[C@H](CC(C)(C)C)NC(=O)[C@H](CC(=O)O)NC2=O (stereo partly drawn) [I-1833, Ac-PL3-Asp-Npg-B5-Asp-TfeGA-Ala-Ala-Phe-Leu-PyrS2-2C1F-BztA-Gln-NH2] |  |  |
| 24 | 7.8 |  | CC(=O)N1CCC[C@]12CC=CCCCCC1(CCCCC=CCCOC(=O)N3CC[C@@](C(=O)N[C@@H](Cc4ccccc4C(F)(F)F)C(=O)N[C@@H](Cc4csc5ccccc45)C(=O)N[C@@H](C)C(N)=O)(C3)NC(=O)[C@H](CC(C)C)NC(=O)[C@H](Cc3ccccc3)NC(=O)[C@H](C)NC(=O)[C@H](CCC(N)=O)NC(=O)[C@H](Cc3cccc(C(=O)O)c3)NC(=O)[C@H](CC(=O)O)NC1=O)NC(=O)[C@H](CC(C)(C)C)NC(=O)[C@H](CC(=O)O)NC2=O (stereo partly drawn) [I-2510, Ac-PL3-Asp-Npg-B6-Asp-3COOHF-Gln-Ala-Phe-Leu-PyrS1-2F3MeF-BztA-Ala-NH2] |  |  |
| 84 | > 20 |  | CC(=O)N1CCC[C@]12CC=CCCCC1(CCCC=CCCCOC(=O)N3CC[C@@](C(=O)N[C@@H](Cc4ccccc4)C(=O)N[C@@H](Cc4csc5ccccc45)C(=O)N[C@@H](CCC(N)=O)C(N)=O)(C3)NC(=O)[C@H](CC(C)C)NC(=O)[C@H](Cc3ccccc3)NC(=O)[C@H](C)NC(=O)[C@H](CCCCNC(C)C)NC(=O)[C@H]([C@@H](C)O)NC(=O)[C@H](CC(=O)O)NC1=O)NC(=O)[C@H](CC1CCCCC1)NC(=O)[C@H](CC(N)=O)NC2=O (stereo partly drawn) [I-2448, Ac-PL3-Asn-Cha-B5-Asp-Thr-iPrLys-Ala-Phe-Leu-PyrS2-Phe-BztA-Gln-NH2] |  |  |
| 8 | 21.5 |  | CC(=O)N1CCC[C@]12CC=CCCCC1(CCCC=CCCCOC(=O)N3CC[C@@](C(=O)N[C@@H](Cc4ccsc4)C(=O)N[C@@H](Cc4csc5ccccc45)C(=O)N[C@@H](CCC(N)=O)C(N)=O)(C3)NC(=O)[C@H](CC(C)C)NC(=O)[C@H](Cc3ccccc3)NC(=O)[C@H](C)NC(=O)[C@H](C)NC(=O)[C@H](CCN(CC(=O)O)C(=O)c3ccc(CN4CCOCC4)cc3)NC(=O)[C@H](CC(=O)O)NC1=O)NC(=O)[C@H](CC(C)(C)C)NC(=O)[C@H](CC(=O)O)NC2=O (stereo partly drawn) [I-2248, Ac-PL3-Asp-Npg-B5-Asp-[MeMorphBz]GAbu-Ala-Ala-Phe-Leu-PyrS2-3Thi-BztA-Gln-NH2] |  |  |
| 97 | 10.6 |  | CC(=O)N1CCC[C@]12CC=CCCCC1(CCCC=CCCCOC(=O)N3CC[C@@](C(=O)N[C@@H](Cc4ccccc4C(F)(F)F)C(=O)N[C@@H](Cc4cccc(Cl)c4)C(=O)N[C@@H](CO)C(N)=O)(C3)NC(=O)[C@H](CC(C)C)NC(=O)[C@H](Cc3ccccc3)NC(=O)[C@H](C)NC(=O)[C@H](C)NC(=O)[C@H](Cc3cccc(C(=O)O)c3)NC(=O)[C@H](CC(=O)O)NC1=O)NC(=O)[C@H](CC(C)(C)C)NC(=O)[C@H](CC(=O)O)NC2=O (stereo partly drawn) [I-2226, Ac-PL3-Asp-Npg-B5-Asp-3COOHF-Ala-Ala-Phe-Leu-PyrS2-2F3MeF-3C1F-Ser-NH2] |  |  |
| 17 | 6.9 |  | CC(=O)N1CCC[C@]12CC=CCCCC1(CCCC=CCCCOC(=O)N3CC[C@@](C(=O)N[C@@H](Cc4ccccc4C#N)C(=O)N[C@@H](Cc4csc5ccccc45)C(=O)N[C@@H](CCC(N)=O)C(N)=O)(C3)NC(=O)[C@H](CC(C)C)NC(=O)[C@H](Cc3ccccc3)NC(=O)[C@H](C)NC(=O)[C@H](C)NC(=O)[C@H](CN(CC(=O)O)CC(F)(F)F)NC(=O)[C@H](CC(=O)O)NC1=O)NC(=O)[C@H](CC(C)(C)C)NC(=O)[C@H](CC(=O)O)NC2=O (stereo partly drawn) [I-1702, Ac-PL3-Asp-Npg-B5-Asp-TfeGA-Ala-Ala-Phe-Leu-PyrS2-2CNF-BztA-Gln-NH2] |  |  |
| 28 |  | 5.1 | CC(=O)N1CCC[C@]12CC=CCCCC1(CCCC=CCCCOC(=O)N3CC[C@@](C(=O)N[C@@H](Cc4ccccc4Cl)C(=O)N[C@@H](Cc4csc5ccccc45)C(=O)N[C@@H](CO)C(N)=O)(C3)NC(=O)[C@H](CC(C)C)NC(=O)[C@H](Cc3ccccc3)NC(=O)[C@H](C)NC(=O)C(C)(C)NC(=O)[C@H](Cc3cccc(C(=O)O)c3)NC(=O)[C@H](CC(=O)O)NC1=O)NC(=O)[C@H](CC(C)(C)C)NC(=O)[C@H](CC(=O)O)NC2=O (stereo partly drawn) [I-1899, Ac-PL3-Asp-Npg-B5-Asp-3COOHF-Aib-Ala-Phe-Leu-PyrS2-2C1F-BztA-Ser-NH2] |  |  |
| 114 | 2.3 |  | CC(=O)N1CCC[C@]12CC=CCCCC1(CCCC=CCCCOC(=O)N3CC[C@@](C(=O)N[C@@H](Cc4ccsc4)C(=O)N[C@@H](Cc4csc5ccccc45)C(=O)N[C@@H](CC(N)=O)C(=O)N[C@@H](C)C(=O)N[C@@H](CC(C)C)C(=O)N[C@@H](CC(C)C)C(N)=O)(C3)NC(=O)[C@H](CC(C)C)NC(=O)[C@H](Cc3ccccc3)NC(=O)[C@H](C)NC(=O)[C@H](C)NC(=O)[C@H](Cc3cccc(C(=O)O)c3)NC(=O)[C@H](CC(=O)O)NC1=O)NC(=O)[C@H](CC(C)(C)C)NC(=O)[C@H](CC(=O)O)NC2=O (stereo partly drawn) [I-2277, Ac-PL3-Asp-Npg-B5-Asp-3COOHF-Ala-Ala-Phe-Leu-PyrS2-3Thi-BztA-Asn-Ala-Leu-Leu-NH2] |  |  |
|  |  |  | CC(=O)N1CCC[C@]12CC=CCCCC1(CCCC=CCCCOC(=O)N3CC[C@@](C(=O)N[C@@H](Cc4ccsc4)C(=O)N[C@@H](Cc4csc5ccccc45)C(=O)N[C@@H](CC(C)C)C(N)=O)(C3)NC(=O)[C@H](CC(C)C)NC(=O)[C@H](Cc3ccccc3)NC(=O)[C@H](C)NC(=O)[C@H](C)NC(=O)[C@H](CC(=O)O)NC(=O)[C@H](CC(=O)O)NC1=O)NC(=O)[C@H](CC(C)C)NC(=O)[C@H](CC(=O)O)NC2=O (stereo partly drawn) [I-1410, Ac-PL3-Asp-Leu-B5-Asp-Asp-Ala-Ala-Phe-Leu-PyrS2-3Thi-BztA-Leu-NH2] | 80 | 29.3 |
| 32 | 4.5 |  | CC(=O)N1CCC[C@]12CC=CCCCC1(CCCC=CCCCOC(=O)N3CC[C@@](C(=O)N[C@@H](Cc4ccccc4C(F)(F)F)C(=O)N[C@@H](Cc4csc5ccccc45)C(=O)N[C@@H](CCC(N)=O)C(N)=O)(C3)NC(=O)[C@H](CC(C)C)NC(=O)[C@H](Cc3ccccc3)NC(=O)[C@H](C)NC(=O)[C@H](C)NC(=O)[C@H](Cc3cc(C(=O)O)cc(C(C)C)c3)NC(=O)[C@H](CC(=O)O)NC1=O)NC(=O)[C@H](CC(C)(C)C)NC(=O)[C@H](CC(=O)O)NC2=O (stereo partly drawn) [I-2430, Ac-PL3-Asp-Npg-B5-Asp-5iPr3COOHF-Ala-Ala-Phe-Leu-PyrS2-2F3MeF-BztA-Gln-NH2] |  |  |
